The subject of assay [1] is panelists. The assay is described as follows: Taste evaluation of sweetness against sucrose reference beverages (water and citric acid buffer). The format is in vivo, human. The method, then: Solutions were made by dissolving all ingredients in treated water. For citric acid buffer, citric acid and potassium citrate were added in a sufficient amount to bring the pH to 3.2. Finished products were filled in 300 ml-glass bottles and stored in the refrigerator. The Rebaudioside X used was 95% pure and obtained from Pure Circle. Beverages were kept in the refrigerator overnight and tasted cold the following day. Two panelists evaluated the beverages. Bottles were removed from the refrigerator and about 50 ml of the beverage was poured in 4 oz-plastic cups. Taste test were conducted in two sessions for each type of solution: water and citric acid buffer. In the first session, the sweetness level of the beverages containing 20 ppm and 30 ppm rebaudioside X were determined against the 0.5%, 1%, and 1.5% sucrose beverages. In the second session, the sweetness level of the beverages containing 7% sucrose and either 20 ppm or 30 ppm rebaudioside X were determined against the 7%, 8%, 9%, and 10% sucrose beverages. Panelists were given mineral water for rinsing before tasting and between tasting different samples. Unsalted crackers were also given to panelists to eat followed by rinsing their mouth with mineral water before tasting the next sample.

Assay [2] concerns panelists. As to the kind of experiment: Taste evaluation of lemon-lime carbonated soft drinks against HFCS-55 controls. The assay is classed as in vivo, human. As to the method: Lemon-lime carbonated soft drinks (CSD) were made by dissolving all ingredients in an amount of water sufficient to make a syrup from which finished beverages were made by adding 5.5 parts carbonated water to 1 part syrup (beverage carbonation target of 3.7 volumes of CO2). Products were prepared with the ingredients provided in Table 8: The beverages were aged for seven days at room temperature and then cooled at 4° C. before tasting. Four panelists evaluated the beverages. Bottles were removed from the refrigerator and about 20 ml of beverage poured in 2 oz-plastic cups. Mineral water was given for palate rinsing before tasting and between tasting different samples.

Another assay deals with human sense of taste. The assay is described as follows: Sweetness recognition threshold. The assay is classed as in vivo. The text has this: The term “sweetness recognition threshold,” as generally used herein, is the lowest known concentration of a sweet compound that is perceivable by the human sense of taste. As such, rebaudioside X enhances or potentiates the sweet taste of sweeteners without providing any noticeable sweet taste by itself when present below its sweetness recognition threshold concentration. However, rebaudioside X may provide a detectable sweet taste at concentrations above its sweetness recognition threshold. The sweetness recognition threshold of rebaudioside X is about 20 to about 30 ppm.
The term “sucrose equivalence,” as used herein, refers to the sweetness of a composition containing at least one […] sweetener against a sucrose reference. Typically, taste panelists are trained to detect sweetness of reference sucrose solutions containing between 1-15% sucrose (w/v). Other non-sucrose sweeteners are then tasted at a series of dilutions to determine the concentration of the non-sucrose, i.e. rebaudioside X, sweetener that is as sweet (i.e. isosweet) to a given percent sucrose reference.

Take `C=C1C[C@@]23CC[C@H]4[C@@](C)(CCC[C@@]4(C)C(=O)O[C@@H]4O[C@H](CO)[C@@H](O)[C@H](O[C@@H]5O[C@H](CO)[C@@H](O)[C@H](O)[C@H]5O)[C@H]4O[C@@H]4O[C@H](CO)[C@@H](O)[C@H](O)[C@H]4O)[C@@H]2CC[C@]1(O[C@@H]1O[C@H](CO)[C@@H](O)[C@H](O[C@@H]2O[C@H](CO)[C@@H](O)[C@H](O)[C@H]2O)[C@H]1O[C@@H]1O[C@H](CO)[C@@H](O)[C@H](O)[C@H]1O)C3` [rebaudioside X, 13-[(2-O-β-D-glucopyranosyl-3-O-β-D-glucopyranosyl-β-D-glucopyranosyl)oxy] ent kaur-16-en-19-oic acid-[(2-O-β-D-glucopyranosyl-3-O-β-D-glucopyranosyl-β-D-glucopyranosyl) ester]]: the “overall sweetness similar to sucrose beverage” value with panelists [1] (7% sucrose and 20 ppm rebaudioside X in water or citric acid buffer, between the 9% and 10% sucrose beverage (average)) is about 9.5 % sucrose; in the assay on panelists [1] (7% sucrose and 30 ppm rebaudioside X in either water or citric acid buffer), about 10 % sucrose; in the assay with panelists [1] (20 ppm rebaudioside X in either water or citric acid buffer (pH 3.2), two panelists, tasted cold) it was about 1 % sucrose; in the assay with panelists [1] (30 ppm rebaudioside X in either water or citric acid buffer (pH 3.2), two panelists, tasted cold) it was about 1.5 % sucrose. Besides, the sweetness enhancement entry in the assay on panelists [1] (20 and 30 ppm rebaudioside X added to a beverage containing 7% sucrose) was “about 1.5%”; in the assay on panelists [2] (30 ppm rebaudioside X added to a beverage containing 8% HFCS-55 (same sweetness as 8% sucrose)) it was “about 2.0%”. For the same compound, the “increase in isosweetness provided by rebaudioside X” value in the assay with panelists [1] (20 ppm rebaudioside X in 7.0% (w/v) sucrose beverage) was 2.5 % (w/v). Also, the isosweet sucrose solution was 9.5 % (w/v) in the assay with panelists [1] (beverage containing 7.0% (w/v) sucrose and 20 ppm rebaudioside X); 1.0 % (w/v) in the assay with panelists [1] (solution containing 20 ppm rebaudioside X, no other sweetener). Besides, the “overall sweetness similar to HFCS-55 beverage” value in the assay with panelists [2] (8% HFCS-55 and 30 ppm rebaudioside X in lemon lime CSD, four panelists, 10% HFCS-55 same sweetness as 10% sucrose) is reported as “about 10 % HFCS-55”. Moreover, the “sucrose equivalence provided at the sweetness recognition threshold” value in the assay with human sense of taste (at about 20-30 ppm rebaudioside X) is recorded as 1.0-1.5%. Also, the sweetness recognition threshold in the assay on human sense of taste (lowest concentration perceivable by the human sense of taste) is 20-30 ppm.
